Values joined by “and” are separate entries in the source; they are usually repeats but may differ in a detail not shown here. Identical values can stand only once.
| melting point | SMILES |
| --- | --- |
| 78 °C | O=C(CC(=O)c1ccccc1)c1ccccc1 [1,3-diphenyl-1,3-propanedione] |
| 32 °C | O=S1(=O)CCCO1 [1,3-propanesultone] |
| 197 °C | O=C1CCC(C(=O)O)=NN1 [1,4,5,6-tetrahydro-6-oxopyridazine-3-carboxylic acid] |
| 332 °C | Nc1ccc(N)c2c1C(=O)c1c(N)ccc(N)c1C2=O [1,4,5,8-Tetraamino-9,10-anthraquinone] |
| 35 °C | CN1CCCN(C)CCN(C)CCCN(C)CC1 [1,4,8,11-tetramethyl-1,4,8,11-tetraazacyclotetradecane] |
| 57 °C | CCCCCCCCCCCCCCCCCC(=O)OC[C@@H](O)[C@H]1OC[C@H](O)[C@H]1O [1,4-Anhydro-6-O-stearoyl-D-glucitol] |
| 43 °C | OC(CS)C(O)CS (stereo not given) [1,4-Disulfanylbutane-2,3-diol] |
| 124 °C | O=C(O)C1COc2ccccc2O1 (stereo not given) [1,4-benzodioxane-2-carboxylic acid] |
| 66 °C | O=S(=O)(Cl)c1ccc2c(c1)OCCO2 [1,4-benzodioxane-6-sulfonyl chloride] |
| 78 °C | O=C1CCC(=O)CC1 [1,4-cyclohexanedione] |
| 77 °C | CC(C)(C)c1ccc(C(C)(C)C)cc1 [1,4-di-tert-butylbenzene] |
| -34 °C | CC(Br)CCCBr (stereo not given) [1,4-dibromopentane] [listing 1 of 2 here] |
| -34 °C | CC(Br)CCCBr (stereo not given) [1,4-dibromopentane] [listing 2 of 2 here] |
| 226 °C | N#Cc1ccc(C#N)cc1 [1,4-dicyanobenzene] |
| 12 °C | C1COCCO1 [1,4-dioxane] |
| 111 °C | O=C(C=Cc1ccccc1)C=Cc1ccccc1 [1,5-Diphenylpenta-1,4-dien-3-one] |
| -16 °C | OCCCCCO [1,5-pentanediol] |
| 251 °C | O=C(O)c1cc2cc(Br)ccc2c(Br)c1O [1,6-dibromo-2-hydroxynaphthalene-3-carboxylic acid] |
| -70 °C | C1CCC2=NCCCN2CC1 [1,8-diazabicyclo[5.4.0]undec-7-ene] |
| 60 °C | OCCCCCCCCO [1,8-octanediol] |
| 18 °C | N#CCCCCCCCCCCC#N [1,10-decanedicarbonitrile] |
| 73 °C | OCCCCCCCCCCO [1,10-decanediol] |
| 118 °C | c1cnc2c(c1)ccc1cccnc12 [1,10-phenanthroline, anhydrous] |
| 29.5 °C | CC(=O)c1ccco1 [1-(2-Furyl)ethanone] |
| 43 °C | O=C(CC(=O)C(F)(F)F)c1cccs1 [1-(2-thenoyl)-3,3,3-trifluoroacetone] |
| 139 °C | Oc1ccc2ccccc2c1N=Nc1nccs1 [1-(2-thiazolylazo)-2-naphthol] |
| 84.8 °C and 85.3 °C | CC(=O)c1ccc(I)cc1 [1-(4-Iodophenyl)ethanone] |
| 104 °C | O=[N+]([O-])c1ccc(N2CCCCC2)cc1 [1-(4-nitrophenyl)piperidine] |

| SMILES | melting point |
| --- | --- |
| N#CCc1cccc(CC#N)c1 [1,3-phenylenediacetonitrile] | 34 °C |
| Clc1ccc(Cl)cc1 [1,4-Dichlorobenzene] | 53 °C |
| ClC(Cl)c1ccc(C(Cl)Cl)cc1 [1,4-bis(dichloromethyl)benzene] | 93 °C |
| CC(=O)OCCCCOC(C)=O [1,4-diacetoxybutane] | 13 °C |
| BrCCCCBr [1,4-dibromobutane] | -17 °C |
| Clc1ccc(Cl)cc1 [1,4-dichlorobenzene] | 53 °C and 55 °C |
| ClCCCCCl [1,4-dichlorobutane] | -37 °C |
| N#CCCCCC#N [1,4-dicyanobutane] | 2 °C |
| N#CCc1ccc(CC#N)cc1 [1,4-phenylenediacetonitrile] | 96 °C |
| BrCCCCCCBr [1,6-Dibromohexane] | 2 °C |
| COc1ccccc1N1CCNCC1 [1-(2-methoxyphenyl)piperazine] | 37 °C |
| CCC(=O)c1ccc(Cl)cc1 [1-(4-Chlorophenyl)propan-1-one] | 35.5 °C |

From the Bradley open melting point set (2014)
